{"source": "patent US10335449B2", "about": "“Rho associated kinase (ROCK) inhibitors and their use in treating disease” (UNIVERSITY OF HOUSTON SYSTEM, priority 2014, dated 2019)", "key": {"ROCK1": {"target": "ROCK1 (Homo sapiens, UniProt Q13464)", "sequence (Q13464 whole entry, species assumed, the tested form may be a part)": "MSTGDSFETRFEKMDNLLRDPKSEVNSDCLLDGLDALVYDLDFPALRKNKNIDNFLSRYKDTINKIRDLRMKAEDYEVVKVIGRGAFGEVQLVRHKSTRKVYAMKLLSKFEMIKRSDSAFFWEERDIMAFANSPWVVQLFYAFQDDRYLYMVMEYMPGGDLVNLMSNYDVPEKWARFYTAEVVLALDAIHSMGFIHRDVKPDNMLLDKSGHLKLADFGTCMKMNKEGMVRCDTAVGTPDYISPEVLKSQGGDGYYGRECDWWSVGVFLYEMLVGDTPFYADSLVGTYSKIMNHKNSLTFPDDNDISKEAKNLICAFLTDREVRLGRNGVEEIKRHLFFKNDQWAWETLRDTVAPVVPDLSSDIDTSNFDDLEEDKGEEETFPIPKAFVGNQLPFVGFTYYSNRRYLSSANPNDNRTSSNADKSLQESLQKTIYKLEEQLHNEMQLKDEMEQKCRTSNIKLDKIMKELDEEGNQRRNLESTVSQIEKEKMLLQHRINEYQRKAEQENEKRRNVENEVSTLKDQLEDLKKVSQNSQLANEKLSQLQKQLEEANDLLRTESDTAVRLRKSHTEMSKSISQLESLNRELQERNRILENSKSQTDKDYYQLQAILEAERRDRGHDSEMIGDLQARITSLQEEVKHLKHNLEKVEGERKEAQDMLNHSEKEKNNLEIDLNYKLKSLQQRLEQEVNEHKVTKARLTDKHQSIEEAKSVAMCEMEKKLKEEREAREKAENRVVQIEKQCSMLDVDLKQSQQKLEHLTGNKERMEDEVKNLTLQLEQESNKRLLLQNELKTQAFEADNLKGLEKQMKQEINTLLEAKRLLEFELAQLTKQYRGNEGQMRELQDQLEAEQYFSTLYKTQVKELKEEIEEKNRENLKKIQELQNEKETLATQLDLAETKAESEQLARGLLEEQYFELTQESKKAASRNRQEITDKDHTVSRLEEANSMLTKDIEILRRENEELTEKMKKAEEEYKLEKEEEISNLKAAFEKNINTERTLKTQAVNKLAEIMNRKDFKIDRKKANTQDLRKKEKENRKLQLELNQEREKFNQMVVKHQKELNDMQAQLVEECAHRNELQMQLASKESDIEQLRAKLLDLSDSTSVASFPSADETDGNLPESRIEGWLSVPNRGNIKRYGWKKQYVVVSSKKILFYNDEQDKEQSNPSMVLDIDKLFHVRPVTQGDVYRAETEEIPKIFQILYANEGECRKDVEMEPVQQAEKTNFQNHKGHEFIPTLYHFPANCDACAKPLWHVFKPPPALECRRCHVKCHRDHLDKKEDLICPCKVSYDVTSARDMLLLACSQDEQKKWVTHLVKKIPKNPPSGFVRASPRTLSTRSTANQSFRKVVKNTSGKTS", "experiment": "Luciferase assay of peptide25 fragments and alanine substitutions", "type": "biochemical", "procedure": "(Right panel) Likewise the alanine substitution at positions Y4, S5, P6, and S7 all reduced the effectiveness of peptide25.\nThe peptide25 was divided into fragments; ERTYS (F1; SEQ ID NO: 3), YSPST (F2; SEQ ID NO: 4), and STAVRS (F3; SEQ ID NO: 2). […] Additionally, an alanine substitution was performed at each position to look for amino acids that putatively might be important to binding and when replaced reduced the response."}, "protein kinase A": {"tested_on": "protein kinase A", "conditions": "cited from earlier work"}, "citron kinase": {"target": "citron kinase (Homo sapiens, UniProt O14578)", "sequence (O14578 whole entry)": "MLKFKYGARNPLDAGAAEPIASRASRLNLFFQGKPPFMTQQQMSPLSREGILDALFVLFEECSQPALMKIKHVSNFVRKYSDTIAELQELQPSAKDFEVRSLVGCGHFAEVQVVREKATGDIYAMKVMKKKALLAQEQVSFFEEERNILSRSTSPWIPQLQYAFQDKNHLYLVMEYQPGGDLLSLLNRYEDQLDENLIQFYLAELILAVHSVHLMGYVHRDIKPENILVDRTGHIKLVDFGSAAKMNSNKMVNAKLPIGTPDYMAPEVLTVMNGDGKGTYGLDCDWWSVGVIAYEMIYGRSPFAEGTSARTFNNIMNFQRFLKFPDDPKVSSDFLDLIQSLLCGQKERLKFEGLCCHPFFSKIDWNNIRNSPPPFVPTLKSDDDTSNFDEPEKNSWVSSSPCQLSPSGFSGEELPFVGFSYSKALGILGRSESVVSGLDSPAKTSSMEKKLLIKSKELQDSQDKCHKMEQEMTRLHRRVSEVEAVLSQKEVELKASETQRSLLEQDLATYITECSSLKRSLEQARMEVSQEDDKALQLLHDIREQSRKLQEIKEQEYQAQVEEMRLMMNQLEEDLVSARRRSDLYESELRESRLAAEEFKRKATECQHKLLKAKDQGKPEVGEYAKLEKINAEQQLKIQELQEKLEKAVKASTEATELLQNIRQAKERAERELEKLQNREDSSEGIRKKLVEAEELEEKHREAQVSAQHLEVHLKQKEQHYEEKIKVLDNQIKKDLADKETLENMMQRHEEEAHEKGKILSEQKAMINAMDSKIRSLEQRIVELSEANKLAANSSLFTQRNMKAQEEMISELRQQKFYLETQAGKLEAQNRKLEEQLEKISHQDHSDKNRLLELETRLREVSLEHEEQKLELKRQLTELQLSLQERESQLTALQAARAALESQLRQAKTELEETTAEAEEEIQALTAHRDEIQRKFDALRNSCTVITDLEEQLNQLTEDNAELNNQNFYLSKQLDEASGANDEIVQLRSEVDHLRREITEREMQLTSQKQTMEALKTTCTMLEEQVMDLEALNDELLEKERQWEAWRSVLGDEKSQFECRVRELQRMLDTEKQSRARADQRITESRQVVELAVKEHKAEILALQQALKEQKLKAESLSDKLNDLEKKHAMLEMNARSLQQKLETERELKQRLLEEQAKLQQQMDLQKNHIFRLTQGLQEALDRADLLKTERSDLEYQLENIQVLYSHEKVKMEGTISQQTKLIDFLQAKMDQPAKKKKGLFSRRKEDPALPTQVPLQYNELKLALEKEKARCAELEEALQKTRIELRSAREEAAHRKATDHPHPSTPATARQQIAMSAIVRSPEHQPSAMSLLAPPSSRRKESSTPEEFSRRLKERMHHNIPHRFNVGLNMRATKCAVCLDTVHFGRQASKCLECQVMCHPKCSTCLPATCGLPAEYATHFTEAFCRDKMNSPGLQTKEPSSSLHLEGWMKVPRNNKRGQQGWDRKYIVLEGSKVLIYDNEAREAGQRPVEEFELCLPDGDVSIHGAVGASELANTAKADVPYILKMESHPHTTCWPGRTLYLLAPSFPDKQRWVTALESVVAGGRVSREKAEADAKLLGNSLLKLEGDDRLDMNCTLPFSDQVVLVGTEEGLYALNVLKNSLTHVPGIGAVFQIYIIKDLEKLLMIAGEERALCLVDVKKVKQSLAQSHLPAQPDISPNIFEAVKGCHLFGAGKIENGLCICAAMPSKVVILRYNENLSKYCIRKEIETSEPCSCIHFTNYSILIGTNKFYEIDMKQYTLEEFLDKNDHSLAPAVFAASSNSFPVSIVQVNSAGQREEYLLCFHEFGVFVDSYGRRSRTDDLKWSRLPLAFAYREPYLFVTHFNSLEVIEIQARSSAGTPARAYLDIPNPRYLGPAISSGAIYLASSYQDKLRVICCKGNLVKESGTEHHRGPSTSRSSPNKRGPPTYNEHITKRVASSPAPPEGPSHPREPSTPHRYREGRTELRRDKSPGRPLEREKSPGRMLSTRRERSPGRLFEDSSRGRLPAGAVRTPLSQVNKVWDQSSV", "conditions": "cited from earlier work"}, "cellular cytoskeleton": {"tested_on": "cellular cytoskeleton", "experiment": "Cellular cytoskeleton disruption in cell culture", "type": "cell-based", "conditions": "added to cell culture medium", "from_the_text": "Peptides25 was synthesized and one of which contained a fusion of the N′ end terminal TAT sequence (TATpeptide25), which allows peptides and proteins easy entry into cells.\nPeptides25 was synthesized and an additional synthesis which contained a fusion of the N′ end terminal TAT sequence (TATpeptide25), which allows peptides and proteins easy entry into cells. […] The TAT polypeptide sequence alone was ineffective. At the cellular level, the cell cytoskeleton changed after TATpeptide25 was introduced into cell culture medium as expected, since ROCK is a mediator for cell morphology and cell migration."}, "[1]": {"tested_on": "aortic rings contracted with U46619", "experiment": "Aortic ring contractility assay (ring bath, U46619)", "parameters": "species or system mice", "procedure": "Channel evaluation of concentrations 150, 200, 300, 100, 250, and 50 μM. Channel 7 (last graph) is the control.\nAortas were collected from adult mice, removed the surrounding fat tissues and installed the freshly cut rings in 2 mm sections on the isometric transducer apparatus. After adjusting the rings tension through series of contraction and relaxation, the rings were constricted 3 times with the 40 mM KCl to achieve consistent contraction. In order to find the effective contraction inducing dose of U46619, following the relaxation of the rings after the KCl contraction, the rings were subjected to contraction by adding different doses of U46619, a vasoconstrictor. 1-3 nM U46619 was chosen do the further experiments. […] Second dose of U46619 was applied to contract the ring. The affection was measured by the difference of the highest response of U46619 with and without Pep25-P2. […] One ring had 26% decreasing, the other had 40% decreasing."}, "ROCK": {"tested_on": "ROCK", "sequence (Q13464 6-415 limits assumed)": "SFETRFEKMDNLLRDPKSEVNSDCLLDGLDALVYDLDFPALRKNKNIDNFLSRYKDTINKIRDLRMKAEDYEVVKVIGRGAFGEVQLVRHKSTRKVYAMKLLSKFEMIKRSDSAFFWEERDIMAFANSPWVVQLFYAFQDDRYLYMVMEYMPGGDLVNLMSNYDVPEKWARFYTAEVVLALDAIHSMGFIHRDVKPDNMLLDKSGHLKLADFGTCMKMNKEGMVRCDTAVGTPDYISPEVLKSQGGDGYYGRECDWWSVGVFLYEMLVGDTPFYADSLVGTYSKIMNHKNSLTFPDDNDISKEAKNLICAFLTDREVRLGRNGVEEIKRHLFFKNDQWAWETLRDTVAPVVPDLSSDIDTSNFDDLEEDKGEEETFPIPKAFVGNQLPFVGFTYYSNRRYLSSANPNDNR", "experiment": "ROCK and S6 substrate reaction followed by mass spectrum", "type": "biochemical", "procedure": "FIG. 10—(Left panel) Mass spectrum, two peaks labeled as S6 and pS6 were non-phosphorylated and phosphorylated S6 from ROCK reaction mixture. Following the decreasing concentration of Pep25-P2, the phosphorylated peak pS6 was increasing. (Right panel) S6 conversion ratios were calculated by phosphorylated peak area divided by the sum of phosphorylated and non-phosphorylated peaks' areas.\nTo determine its inhibition at substrate conversion, different concentrations of Pep25-P2 was added to a ROCK and S6 (substrate) reaction mixture. In MS data, peaks representing phosphorylated and non-phosphorylated S6 substrates were then identified (FIG. 10)."}, "[2]": {"tested_on": "cell movement into the wound (ROCK1)", "experiment": "Wound healing scratch test", "type": "cell-based", "conditions": "for percent of healing (mean): standard scratch test, at least N=5 trials, control mean 17.4", "procedure": "Peptide25 change in perimeter (mean: 15%; p-value: 0.03) was evaluated for 4 separate experiments with each having 3 trials for a total of 12 measurements. These experiments included two controls, one with no treatment the other with only the TAT peptide.\nPeptide fragments were chosen based on the information from analysis of critical residues and the candidate sequences Pep25-A AAYSPST (Pep25-A; SEQ ID NO: 62) and ERTYSPS (Pep25-P2; SEQ ID NO: 69) were evaluated again using a wound healing scratch test."}, "[3]": {"target": "T1, ROCK1 catalytic domain (MBP-ROCK1) (Homo sapiens, UniProt Q13464)", "T1 construct": "made in house", "T1 sequence (Q13464 76-338 limits assumed, species assumed)": "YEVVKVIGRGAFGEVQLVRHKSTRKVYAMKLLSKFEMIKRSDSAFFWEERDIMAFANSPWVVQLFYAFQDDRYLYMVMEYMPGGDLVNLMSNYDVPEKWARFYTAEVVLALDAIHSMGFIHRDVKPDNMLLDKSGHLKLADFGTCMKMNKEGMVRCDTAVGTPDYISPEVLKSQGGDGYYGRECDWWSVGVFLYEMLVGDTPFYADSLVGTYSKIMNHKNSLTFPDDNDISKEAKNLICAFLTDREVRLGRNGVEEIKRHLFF", "experiment": "ROCK1 autophosphorylation inhibition by phage-displayed peptides", "type": "biochemical", "conditions": "for ROCK autophosphorylation inhibition: high ATP levels (1 mM)", "procedure": "The maltose binding protein fusion protein linked to the ROCK1 kinase domain (MBP-ROCK1) was incubated with a Ph.D-12 phage display library of 12 amino acids in length (New England Biolabs, Inc).\nThe ROCK1 catalytic domain (MBP-ROCK1) was linked to a maltose binding protein fusion protein and was incubated with a Ph.D-12 phage display library of 12 amino acids in length (New England Biolabs, Inc.)."}, "ROCK2": {"target": "ROCK2 (Homo sapiens, UniProt O75116)", "experiment": "Surface Plasmon Resonance binding (BiaCore)", "conditions": "SPR, data not shown", "from_the_text": "FIG. 6—Determination of binding affinity of TATpeptide25. Proteins MBP, ROCK2, ROCK1-553. ROCK1-415 Were immobilized on CM-5 chip and peptide binding affinity was monitored by BiaCore system. Peptide TAT was used as control to monitored non-specific binding.\nSurface Plasmon Resonance (SPR) was used to measure peptide25 binding efficiency with ROCK."}}, "note": "Values joined by “and” are separate entries in the source; they are usually repeats but may differ in a detail not shown here. Equal entries are not always repeated. “Also recorded” adds a separate entry of the source. No end group written: not given here."}
{"compound": "ERTYS [F1]", "values": [{"measurement": "inhibitory activity measured by luciferase assay", "setting": "ROCK1", "result": "retained its activity"}]}
{"compound": "O=S(=O)(c1cccc2cnccc12)N1CCCNCC1", "note": "[Fusadil]", "values": [{"measurement": "inhibition of protein kinase A", "setting": "protein kinase A", "result": "also inhibit"}, {"measurement": "inhibition of citron kinase", "setting": "citron kinase", "result": "also inhibit"}]}
{"compound": "STAVRS [F3]", "values": [{"measurement": "inhibitory activity measured by luciferase assay", "setting": "ROCK1", "result": "lost effectively; also recorded: did not confer an inhibitory response"}]}
{"compound": "TATpeptide25: peptide25 with a fusion of the N′ end terminal TAT sequence (ERTYSPSTAVRS; also: N-terminal TAT sequence fusion, not in given chain)", "values": [{"measurement": "effect on cellular cytoskeleton", "setting": "cellular cytoskeleton", "result": "disassociated or “melted” cellular cytoskeleton"}, {"measurement": "effect on cellular cytoskeleton", "setting": "cellular cytoskeleton; listed as TAT-end-labeled peptide25", "result": "melted cytoskeleton"}]}
{"compound": "ERTYSPS [Pep25-P2]", "values": [{"measurement": "suppression of U46619 contractility", "setting": "[1]; 50-300 μM, preincubation 20 min", "result": "showed suppression of contractility of U46619; also recorded: dose dependant response"}, {"measurement": "decrease of highest U46619 contraction response", "setting": "[1]; 200 and 300 μM preincubated 10 min, one ring each, 1-3 nM U46619", "result": "26% and 40%"}, {"measurement": "phosphorylation of substrate S6 by ROCK (conversion ratio)", "setting": "ROCK; different concentrations of peptide in ROCK and S6 reaction mixture", "result": "repressed the phosphorylation of substrate S6 by ROCK"}, {"measurement": "phosphorylation of the peptide by ROCK", "setting": "ROCK; mass spectrum", "result": "couldn't be phosphorylated by ROCK"}, {"measurement": "wound healing / ROCK1 inhibition in scratch test", "setting": "[2]", "result": "inhibited ROCK1 more effectively; also recorded: inhibited wound healing"}, {"measurement": "effective dose from dose curve", "setting": "[2]; scratch test dose response", "result": 40, "unit": "µM"}, {"measurement": "percent of healing (mean)", "setting": "[2]", "result": 13.1, "unit": "%"}, {"measurement": "effect on cellular cytoskeleton", "setting": "cellular cytoskeleton", "result": "disrupted actin exoskeleton formation"}]}
{"compound": "YSPST [F2]", "values": [{"measurement": "inhibitory activity measured by luciferase assay", "setting": "ROCK1", "result": "retained its activity"}]}
{"compound": "ERTYSPSTAVRS [peptide25]", "values": [{"measurement": "ROCK autophosphorylation inhibition", "setting": "[3]", "result": "blocked ROCK autophosphorylation"}, {"measurement": "ROCK1 activity", "setting": "[3]; in the presence of mM ATP", "result": "blocked ROCK1 activity"}, {"measurement": "autophosphorylated inhibition", "setting": "[3]; phage display candidates", "result": "exhibited autophosphorylated inhibition"}, {"measurement": "change in perimeter at the intersection of the scratch (mean)", "setting": "[2]; 4 separate experiments, 3 trials each, 12 measurements, p-value 0.03", "result": 15, "unit": "%"}, {"measurement": "binding with ROCK1 as compared to ROCK2", "setting": "ROCK2", "result": "demonstrated some difference"}]}
{"compound": "C[C@@H](N)[C@H]1CC[C@H](C(=O)Nc2ccncc2)CC1", "note": "[Y27632]", "values": [{"measurement": "ROCK autophosphorylation inhibition", "setting": "[3]", "result": "blocked Y27632 inhibitory activity"}, {"measurement": "inhibition of protein kinase A", "setting": "protein kinase A", "result": "also inhibit"}, {"measurement": "inhibition of citron kinase", "setting": "citron kinase", "result": "also inhibit"}, {"measurement": "effect on cellular cytoskeleton", "setting": "cellular cytoskeleton", "result": "melted cytoskeleton"}]}
{"compound": "AAYSPST [Pep25-A]", "values": [{"measurement": "percent of healing (mean)", "setting": "[2]", "result": 15.1, "unit": "%"}]}
